Laboratory results from a melting point compilation (Tetko et al.; mined from patent text by program, amines drawn as free bases though some values may be those of a salt).

Point of comparison: `CC(C)CCCC(=O)OC1c2ccccc2C(=O)N1c1ccc2ccc(Cl)nc2n1` (stereo not drawn), melting point 132 °C. Against it:
- Cc1cc2ncc(-c3cccc(-c4ccccc4C#N)c3)n2cn1 — lower, 119 °C
- CCCCCCCCCCCCCC(C)Oc1c(I)cc(I)cc1I (stereo not drawn) — lower, 56 to 58 °C
- CCOC(=O)C1(NC(C)=O)CC(C)(C)NC(C)(C)C1 — lower, 108 to 109 °C
- O=[N+]([O-])c1cnc(Nc2ccccc2F)c([N+](=O)[O-])c1 — higher, 159 to 161 °C
- O=C(Nc1ccc(CN2CCCCC2)cc1)c1ccc2ccc(-c3ccccc3)cc2c1 — higher, 177 to 178 °C
- CSc1ccc(/C=C/C2=CC(=O)C(C)(C)O2)cc1 — lower, 98 to 99.5 °C
- Oc1nn(-c2ccccc2)c2ccccc12 — higher, 209 to 211 °C
- O=[N+]([O-])c1ccc(CCC2CCN(c3cc(Cl)nnc3Cl)CC2)cc1 — higher, 162 to 164 °C
- CC(=O)C1=Cc2cc(Br)ccc2OC1 — lower, 70 °C
- O=C1C(=O)c2ccccc2C2=C1SCC1(CCN(CC(O)Cc3ccc(Cl)cc3)CC1)O2 (stereo not drawn) — higher, 195 to 196 °C
- CCOP(=O)(CCc1cc(OCc2ccc(OCc3nc(-c4ccco4)oc3C)c(OC)c2)nn1-c1ccccc1)OCC — lower, 76 to 77 °C
- COc1cc(C(=O)c2c(N)sc3c2CCN(C(=O)c2ccc(Cl)cc2)C3)ccc1OC(C)C — lower, 118 to 119 °C
- O=C(O)CSCCSc1cc(-c2ccccc2)c(O)c(-c2ccccc2)c1 — lower, 125 °C
- Cc1nc2cc(NC(=O)c3cc4cc(F)ccc4n3Cc3cccc(F)c3)ccn2c1-c1ccccc1 — higher, 217 to 218 °C
- COC(=O)c1c(N)ncn1-c1c(C)cccc1C — higher, 154 to 156 °C
- O=C(O)Cc1c([N+](=O)[O-])ccc2c1O[C@@H](CNCc1ccccc1)CO2 — higher, 206 °C
- Cn1cc(-c2cccc(C(F)(F)F)c2)c(=O)c(-c2ccc(Cl)c(Cl)c2)c1 — lower, 109 to 112 °C
- C=C(CC(C)C)C(=O)NCC(=O)O — lower, 73 to 80 °C
- N#CCc1cc(CO)cs1 — lower, 45 to 47 °C
- CN(NC(=O)c1c(F)cccc1Cl)S(C)(=O)=O — higher, 135 to 136 °C
- CN=C(NC#N)C1=CC2(CCOCC2)Oc2ccc([N+](=O)[O-])cc21 — higher, 293 to 294 °C
- NC(=O)CNC(=O)c1cccc(-c2cccc3cc(Cc4cccc(C(F)(F)F)c4)sc23)c1 — higher, 147 to 148 °C
- CC(C)CC(Cn1cc(Sc2ccccc2)c2ccccc21)N(O)C(N)=O (stereo not drawn) — lower, 57 °C
- C#CCSC1NN=C(c2ccncc2)N1c1ccccc1 (stereo not drawn) — higher, 151 to 152 °C
- Cc1ccc2c(c1)C=C(c1ccc(OCCN3CCCC3)cc1)S2=O (stereo not drawn) — higher, 150 to 151 °C
- O=C1C(=O)c2ccc(Br)cc2C2=C1SCC1(CCN(Cc3ccc(F)cc3)CC1)O2 — higher, 210 to 211 °C
- Nc1sc(/C=C/Cc2ccc(Cl)cc2)c(CN(C2CCCCC2)C2CCCCC2)c1C(=O)c1ccc(Cl)cc1 — higher, 143 to 146 °C
- CCOC(=O)c1c(C2CC2)nc(CC)n1Cc1ccc2oc(-c3ccccc3-c3nnn[nH]3)c(Br)c2c1 — not separable, 132 to 137 °C
- CCN(CC)CCOCCC1CCN(C(=O)N2c3cc(Cl)ccc3C(=O)Nc3cccnc32)CC1 — higher, 145 to 146 °C
- CC(=O)OC1c2ccccc2C(=O)N1CCO[N+](=O)[O-] (stereo not drawn) — lower, 74 to 75 °C
- O=S(=O)(c1ccc(Cl)cc1)C(c1cc(F)ccc1F)C(O)CCCCO (stereo not drawn) — lower, 105 to 107 °C
- COc1cc(-c2ccc3cc4c(cc3c2)C(C)(C)CCC4(C)C)ccc1C(=O)O — higher, 177 to 178 °C
- O=C(O)C1=Cc2cc(Oc3ccc(C(F)(F)F)cc3)ccc2OC1C(F)(F)F (stereo not drawn) — higher, 154 °C
- Oc1ccccc1-c1cc(-c2ccc3c(c2)OCO3)cc(-c2ccc3ccccc3c2)n1 — higher, 195 to 196 °C
- COc1cc(Nc2nccc(-c3ccc(NCCN(C)C)nc3)n2)cc(OC)c1OC — lower, 110 to 111 °C
- COc1cccc2c1C(=O)c1c(OC)cc(C#N)cc1C2=O — higher, 266 to 268 °C
- CC1CCc2[nH]c3ccc(Br)cc3c2C1 (stereo not drawn) — lower, 108 to 110 °C
- COC(=O)c1cc2cc3[nH]c(=O)oc3cc2[nH]1 — higher, 267 to 277 °C
- CCc1c(-c2ccccc2)n(-c2ccccc2Cl)c(-c2ccccc2)cc1=O — higher, 165 to 166 °C
- COC(=O)c1coc2cc(Oc3ccnc(N)n3)ccc12 — higher, 194 to 196 °C
- CC(C)CC(S)C(=O)NC1(C(=O)NC(CC2(c3cccc4ccccc34)C=CC(c3ccccc3)=CC2)C(=O)O)CCCC1 (stereo not drawn) — higher, 187 to 189 °C
- COc1ccccc1C=C1NC(=O)NC1=O — higher, 174 to 179 °C
- COc1ccc(C(=O)O)cc1OC1CC=CC1 — higher, 171 to 173 °C
- COC(=S)CCc1cc(Oc2ccc(C(F)(F)F)cc2Cl)ccc1[N+](=O)[O-] — lower, 61 to 63 °C
- COc1ccc(Cn2cnc(C(=N)C#N)c2N)cc1 — lower, 92 to 94 °C
- OC1CSC(Oc2ccc(-c3cccnc3)cc2F)C(O)C1O (stereo not drawn) — higher, 207 °C
- C=C(c1cn(-c2c(Cl)cc(C(F)(F)F)cc2Cl)nc1C#N)C(F)(F)C(F)(F)C(F)(F)F — lower, 109 to 110 °C
- CC(=O)Nc1cccc(C(=O)Nc2cccc3cc(Br)cnc23)c1 — higher, 198 to 202 °C
- CC1CCCN1CCCOc1ccc(-c2ccc(S(=O)Cc3ccccc3)nn2)cc1 (stereo not drawn) — higher, 145 °C
- COc1cc(OC)nc(-n2c(S(C)(=O)=O)nc3ccccc32)n1 — lower, 114 to 117 °C
- Cc1cc(=O)[nH]c2ccc(Br)cc12 — higher, 292 to 299 °C
- COc1ccc(-c2ccc(C(C)=O)cc2)cc1C=O — higher, 136 to 138 °C
- NC(N)=Nc1nc(-c2csc(CNC(=O)CSCc3ccco3)n2)cs1 — higher, 204 °C
- O=C(c1ccccc1)c1ccc(SC(Cl)(Cl)Cl)cc1 — lower, 62 to 63 °C
- Cc1cc2c3c(cccc3c1Br)C(=O)N(O)C2=O — higher, 255 to 257 °C
- CC(C)NC1=NS(=O)(=O)c2ccc(F)cc2N1 — higher, 266 to 269 °C
- COc1ccc(C(=O)Nc2c(Cl)cncc2Cl)c2c1[nH]c1ccc(Cl)cc12 — higher, > 359 °C
- CCc1cccc(CC)c1NC(=O)CN — lower, 70 to 71 °C
- O=C(O)c1ccccc1Oc1cc(Cl)c(Cl)cc1NS(=O)(=O)c1cc(C(F)(F)F)cc(C(F)(F)F)c1 — higher, 139 to 140 °C
- COc1ccc(C(C#Cc2ccccc2)CC(=O)N(C)C)cc1OC1CCCC1 (racemic) — lower, 87 to 89 °C
- O=C(O)CCc1cccc(NC(=O)NCC(=O)N2[C@@H](c3ccccc3)CC[C@H]2c2ccccc2)c1 — higher, 170 °C
- C=CCOc1ccc(-c2cccc(C#N)c2)cc1 — lower, 80 to 90 °C
- NN1CN=Cc2c(NC3OC(CO)C(O)C3O)ncnc21 (stereo not drawn) — higher, 209 to 214 °C
- CCc1cn(C(C)C(=O)N(C)C)nc1-c1ccccc1Cl (stereo not drawn) — lower, 74 to 76 °C
- COc1ccccc1-c1cccc2c1OC(COS(=O)(=O)c1ccc(C)cc1)C2 (stereo not drawn) — lower, 100 to 103 °C
- CCc1cc(Cc2cnc(N)nc2N)cc(CC)c1O — higher, 200 to 202 °C
- N#Cc1ccc2c(c1)Sc1ccccc1O2 — higher, 215 °C
- C(=C\c1ccc2c(c1)COC(N[C@@H]1CCc3ccccc31)=N2)/c1cccnc1 — the same, 132 °C
- CCCCN1C(=O)NC(Cc2ccc(C=O)cc2)C1=O (stereo not drawn) — higher, 160 °C
- O=C(O)c1csc(-c2ccc3cc(O)c(C45CC6CC(CC(C6)C4)C5)cc3c2)c1 — higher, 312 to 314 °C
- CCCNC(=O)Nc1nc(-c2cc(C)cc(C)c2)c(-c2ccncc2)s1 — lower, 128 to 130 °C
- COc1cc2c(Nc3ccc4c(c3)NCC4)c(C#N)cnc2cc1OCCCc1ccncc1 — lower, 100 to 105 °C
- CN(Cc1ccc(NC(=O)C2=Cc3cc(-c4ccc(F)cc4)ccc3S(=O)(=O)CC2)cc1)C1CCOCC1 — higher, 219 to 221 °C
- O=C1c2ccccc2C(=O)N1CC(=O)N1c2ccccc2N(Cc2ccccc2)C(=O)C2(Cc3ccccc3)CCCC12 (stereo not drawn) — higher, 214 to 215 °C
- COc1cc(CS(=O)c2ccc(O)cc2)cc(OC)c1OC (stereo not drawn) — higher, 153 °C
- Cc1ccc(N2C(=O)C(O)=C(C(=O)c3ccc(C(F)(F)F)nc3)C2c2ccc(OC(F)(F)F)cc2)nn1 (stereo not drawn) — higher, 172 °C
- COc1cc(OC)c(-c2cccs2)cc1/C=C/C(=O)c1ccc(S(=O)(=O)Nc2ccccn2)cc1 — higher, 141 to 143 °C
- CC(C)c1ccc(C(=O)C2c3ccccc3Oc3ccccc32)c(C(C)C)c1OS(N)(=O)=O — higher, 180 to 181 °C
- BrCCCNC(c1ccccc1)(c1ccccc1)c1ccccc1 — lower, 100 to 102 °C
- O=c1oc(Oc2ccc(Cl)cc2)nn1-c1ccccc1Cl — lower, 110 °C
- Cc1csc(-c2nc(=O)c3ccccc3s2)n1 — higher, 210 to 211 °C
- CCc1nc([C@@H]2C[C@H]2c2nc3ccccc3n2C)cc(-n2nc(C)nc2C)n1 (relative stereo) — higher, 158 to 160 °C
- COc1cc(/C=C/C(=O)O)ccc1OCc1sc(-c2ccc(C(F)(F)F)cc2)nc1C — higher, 235 to 237 °C
- COc1ccc(C2=NN(c3cccc(C(=O)O)c3)C(=O)[C@H]3CC=CC[C@@H]23)cc1OC (relative stereo) — higher, 185 to 186 °C
- O=C(Nc1nnn[nH]1)c1cnc2sc3ccc(Cl)cc3n2c1=O — higher, > 300 °C
- CC(C)(C)c1cc2c(n1-c1ccc(O)c(C(=O)O)c1)CCc1ccccc1-2 — higher, 258 to 260 °C
- COc1cc(-c2ccco2)c2oc(-c3ccc(OC)c(F)c3)nc2c1 — higher, 155 °C
- CC(C)(C)OC(=O)N1CCN(C(=O)OC(C)(C)C)C1=S — lower, 117 to 118 °C
- CCC(=O)N(CC)c1cccc(-c2ccnc3c(C#N)cnn23)c1 — higher, 161 to 162 °C
- Cc1nc(-c2cccnc2)sc1-c1ccnc(Nc2ccc(N3CCSCC3)cc2)n1 — higher, 191 to 193 °C
- O=C1c2c(Br)cccc2-n2cnc(C(=O)n3ccnc3)c2[C@@H]2CCCN12 — higher, 215 to 217 °C
- CC(C)n1cc(-c2ccc(Oc3ccccc3)c(CO)c2)c2c(N)ncnc21 — lower, 92 to 94 °C
- CCC1CCc2[nH]cc3c(=O)n(-c4ccc(Cl)cc4)nc-3c2C1 (stereo not drawn) — higher, 318 to 320 °C
- Cc1nc(-c2ccc(CCN3CCN(c4nsc5ccccc45)CC3)cc2)cs1 — higher, 135 to 140 °C
- CCS(=O)(=O)N[C@H](C(=O)NCCc1ccc(OCc2ccccc2)cc1)C(C)C — higher, 133 to 134 °C
- CC(C)(C)C(NC(=O)COc1ccccc1)Nc1c(Nc2cccnc2)c(=O)c1=O (stereo not drawn) — higher, 227 to 228 °C
- CCN1CN(c2ccc(Cl)cc2)c2ncccc2C1=O — lower, 100 to 101 °C
